Experimental findings from PMC8617627, “Novel DYRK1A Inhibitor Rescues Learning and Memory Deficits in a Mouse Model of Down Syndrome” (Pharmaceuticals, 2021) are described below.

Common to all, as to assay: Kinase profile (33P ATP filter binding)
Common to all, as to type: biochemical

For one assay, the target named is T1, p38d MAPK (Homo sapiens, UniProt O15264).
T1 sequence (O15264 1-365): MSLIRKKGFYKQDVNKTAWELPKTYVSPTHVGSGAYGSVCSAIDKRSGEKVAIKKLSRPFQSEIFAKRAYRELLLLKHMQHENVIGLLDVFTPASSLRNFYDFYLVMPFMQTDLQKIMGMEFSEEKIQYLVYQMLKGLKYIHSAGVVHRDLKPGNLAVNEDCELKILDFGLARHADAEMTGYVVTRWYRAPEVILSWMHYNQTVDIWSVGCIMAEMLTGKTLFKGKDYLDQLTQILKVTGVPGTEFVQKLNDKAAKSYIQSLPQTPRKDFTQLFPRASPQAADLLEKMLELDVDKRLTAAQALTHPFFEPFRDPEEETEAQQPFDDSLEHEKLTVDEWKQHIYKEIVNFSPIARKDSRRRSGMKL
The conditions noted are these: read-out: Remaining protein kinase activity.

For the next assay, the target named is T2, TGFBR1 (Homo sapiens, UniProt P36897).
T2 sequence (P36897 34-503): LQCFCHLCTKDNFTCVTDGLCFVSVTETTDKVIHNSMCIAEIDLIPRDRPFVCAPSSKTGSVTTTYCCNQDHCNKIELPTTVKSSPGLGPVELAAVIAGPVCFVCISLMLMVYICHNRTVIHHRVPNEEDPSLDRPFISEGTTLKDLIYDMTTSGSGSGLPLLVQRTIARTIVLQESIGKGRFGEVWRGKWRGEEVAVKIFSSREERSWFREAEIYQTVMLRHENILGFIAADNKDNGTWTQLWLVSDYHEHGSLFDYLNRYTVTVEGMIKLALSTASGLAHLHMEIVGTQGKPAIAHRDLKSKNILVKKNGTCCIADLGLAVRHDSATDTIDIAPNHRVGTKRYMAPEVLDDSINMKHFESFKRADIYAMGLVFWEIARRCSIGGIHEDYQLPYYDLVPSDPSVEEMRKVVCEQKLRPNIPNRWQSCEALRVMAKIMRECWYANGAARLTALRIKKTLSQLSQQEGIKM
The conditions noted are these: read-out: Remaining protein kinase activity.

Another assay concerns the target YES1 (Homo sapiens, UniProt P07947). The conditions noted are these: read-out: Remaining protein kinase activity.
For the next assay, the target named is HER4 (Homo sapiens, UniProt Q15303). The conditions noted are these: read-out: Remaining protein kinase activity.
The target of another assay is WNK1 (Homo sapiens, UniProt Q9H4A3).
Sequence of WNK1 (Q9H4A3 whole entry): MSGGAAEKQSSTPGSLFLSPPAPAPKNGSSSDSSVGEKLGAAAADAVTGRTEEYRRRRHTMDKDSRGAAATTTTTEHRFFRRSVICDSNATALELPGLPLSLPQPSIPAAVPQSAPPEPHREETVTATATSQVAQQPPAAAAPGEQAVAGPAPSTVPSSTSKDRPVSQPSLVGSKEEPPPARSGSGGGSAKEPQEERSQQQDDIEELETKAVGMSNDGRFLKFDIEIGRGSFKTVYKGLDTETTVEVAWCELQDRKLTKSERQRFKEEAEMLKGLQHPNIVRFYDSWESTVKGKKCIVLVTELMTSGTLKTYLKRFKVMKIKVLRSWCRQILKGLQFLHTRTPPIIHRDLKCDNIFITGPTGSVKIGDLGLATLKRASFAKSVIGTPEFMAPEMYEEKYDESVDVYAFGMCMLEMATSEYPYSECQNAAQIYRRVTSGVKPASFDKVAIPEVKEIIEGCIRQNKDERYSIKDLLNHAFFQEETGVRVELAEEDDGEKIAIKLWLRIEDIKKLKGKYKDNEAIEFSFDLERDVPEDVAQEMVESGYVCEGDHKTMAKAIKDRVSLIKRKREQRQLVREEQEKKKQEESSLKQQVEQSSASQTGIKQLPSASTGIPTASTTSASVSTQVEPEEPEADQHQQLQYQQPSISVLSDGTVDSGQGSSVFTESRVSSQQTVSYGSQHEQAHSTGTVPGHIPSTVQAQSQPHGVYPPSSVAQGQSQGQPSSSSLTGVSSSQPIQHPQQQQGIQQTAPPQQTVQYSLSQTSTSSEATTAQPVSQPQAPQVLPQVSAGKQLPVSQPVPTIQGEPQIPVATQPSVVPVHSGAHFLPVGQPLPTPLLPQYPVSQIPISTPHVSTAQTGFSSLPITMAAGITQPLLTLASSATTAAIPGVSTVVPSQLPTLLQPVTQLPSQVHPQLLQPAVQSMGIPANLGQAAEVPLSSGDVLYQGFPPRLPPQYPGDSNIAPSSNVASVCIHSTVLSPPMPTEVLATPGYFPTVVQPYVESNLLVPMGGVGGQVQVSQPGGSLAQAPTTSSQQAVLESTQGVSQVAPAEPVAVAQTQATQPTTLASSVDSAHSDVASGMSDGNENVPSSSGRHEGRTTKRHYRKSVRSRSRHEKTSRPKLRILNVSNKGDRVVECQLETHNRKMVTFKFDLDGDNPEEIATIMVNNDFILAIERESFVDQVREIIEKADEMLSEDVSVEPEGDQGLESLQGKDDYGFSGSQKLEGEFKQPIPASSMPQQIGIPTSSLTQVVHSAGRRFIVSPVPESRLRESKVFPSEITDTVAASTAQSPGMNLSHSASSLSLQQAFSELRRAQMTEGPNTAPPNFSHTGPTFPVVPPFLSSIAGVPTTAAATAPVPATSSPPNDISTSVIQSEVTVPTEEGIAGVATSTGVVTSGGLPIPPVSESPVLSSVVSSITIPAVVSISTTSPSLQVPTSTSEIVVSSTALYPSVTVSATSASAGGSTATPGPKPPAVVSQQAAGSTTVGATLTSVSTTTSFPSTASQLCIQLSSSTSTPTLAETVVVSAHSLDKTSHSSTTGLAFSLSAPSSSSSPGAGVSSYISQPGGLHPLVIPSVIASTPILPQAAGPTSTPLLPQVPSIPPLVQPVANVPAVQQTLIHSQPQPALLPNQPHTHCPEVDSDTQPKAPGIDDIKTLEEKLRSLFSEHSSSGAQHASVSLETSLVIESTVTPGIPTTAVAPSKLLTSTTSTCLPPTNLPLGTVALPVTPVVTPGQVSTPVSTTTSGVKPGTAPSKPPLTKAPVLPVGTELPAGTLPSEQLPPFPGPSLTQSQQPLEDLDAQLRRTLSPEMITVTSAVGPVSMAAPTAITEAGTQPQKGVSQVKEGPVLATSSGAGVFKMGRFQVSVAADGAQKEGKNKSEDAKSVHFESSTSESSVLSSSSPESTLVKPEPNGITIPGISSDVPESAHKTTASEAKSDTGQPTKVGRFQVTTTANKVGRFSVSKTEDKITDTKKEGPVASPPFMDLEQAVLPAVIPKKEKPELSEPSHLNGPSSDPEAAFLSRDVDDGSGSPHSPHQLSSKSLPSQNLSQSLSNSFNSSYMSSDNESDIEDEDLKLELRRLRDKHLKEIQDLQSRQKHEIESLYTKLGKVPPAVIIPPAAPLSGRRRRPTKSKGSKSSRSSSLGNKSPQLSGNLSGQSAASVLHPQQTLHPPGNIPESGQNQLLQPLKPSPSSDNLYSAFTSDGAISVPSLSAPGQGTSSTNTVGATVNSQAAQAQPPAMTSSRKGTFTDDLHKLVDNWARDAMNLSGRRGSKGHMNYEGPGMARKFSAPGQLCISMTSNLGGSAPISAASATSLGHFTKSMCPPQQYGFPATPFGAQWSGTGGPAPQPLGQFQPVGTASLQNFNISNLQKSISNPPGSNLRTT
The next assay addresses T3, TAO1 (Homo sapiens, UniProt Q7L7X3).
T3 sequence (Q7L7X3 1-1001): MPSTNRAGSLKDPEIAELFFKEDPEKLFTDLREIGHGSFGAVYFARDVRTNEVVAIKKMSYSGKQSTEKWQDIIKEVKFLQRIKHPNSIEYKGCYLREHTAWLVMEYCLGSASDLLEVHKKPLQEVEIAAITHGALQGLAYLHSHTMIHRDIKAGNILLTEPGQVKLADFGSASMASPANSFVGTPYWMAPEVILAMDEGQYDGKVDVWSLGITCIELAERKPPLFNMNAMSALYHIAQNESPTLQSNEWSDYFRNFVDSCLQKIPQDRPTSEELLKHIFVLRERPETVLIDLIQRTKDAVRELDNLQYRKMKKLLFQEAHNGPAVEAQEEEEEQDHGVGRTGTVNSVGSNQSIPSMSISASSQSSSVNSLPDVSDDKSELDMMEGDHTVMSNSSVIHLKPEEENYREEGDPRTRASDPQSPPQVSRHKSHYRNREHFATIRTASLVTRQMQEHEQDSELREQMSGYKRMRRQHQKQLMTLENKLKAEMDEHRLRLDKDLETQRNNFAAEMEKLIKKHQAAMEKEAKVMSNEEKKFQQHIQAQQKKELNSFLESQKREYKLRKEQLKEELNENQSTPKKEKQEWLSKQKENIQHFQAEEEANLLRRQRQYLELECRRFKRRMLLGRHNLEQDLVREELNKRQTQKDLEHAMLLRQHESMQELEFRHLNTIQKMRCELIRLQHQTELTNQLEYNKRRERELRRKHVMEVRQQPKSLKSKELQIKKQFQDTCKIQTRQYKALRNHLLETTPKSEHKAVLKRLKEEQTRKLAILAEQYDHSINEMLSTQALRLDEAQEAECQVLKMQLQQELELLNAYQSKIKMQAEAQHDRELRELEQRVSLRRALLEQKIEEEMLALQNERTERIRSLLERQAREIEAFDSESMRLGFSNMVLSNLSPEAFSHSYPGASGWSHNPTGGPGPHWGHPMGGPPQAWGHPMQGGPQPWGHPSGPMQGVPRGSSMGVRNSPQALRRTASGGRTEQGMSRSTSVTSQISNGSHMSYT
The conditions noted are these: read-out: Remaining protein kinase activity.

Another assay has as its target MAPKAP-K3 (Homo sapiens, UniProt Q16644). The conditions noted are these: read-out: Remaining protein kinase activity.
The next assay deals with MKK2 (Homo sapiens, UniProt P36507). The conditions noted are these: read-out: Remaining protein kinase activity.
Sequence of MKK2 (P36507 whole entry, species assumed): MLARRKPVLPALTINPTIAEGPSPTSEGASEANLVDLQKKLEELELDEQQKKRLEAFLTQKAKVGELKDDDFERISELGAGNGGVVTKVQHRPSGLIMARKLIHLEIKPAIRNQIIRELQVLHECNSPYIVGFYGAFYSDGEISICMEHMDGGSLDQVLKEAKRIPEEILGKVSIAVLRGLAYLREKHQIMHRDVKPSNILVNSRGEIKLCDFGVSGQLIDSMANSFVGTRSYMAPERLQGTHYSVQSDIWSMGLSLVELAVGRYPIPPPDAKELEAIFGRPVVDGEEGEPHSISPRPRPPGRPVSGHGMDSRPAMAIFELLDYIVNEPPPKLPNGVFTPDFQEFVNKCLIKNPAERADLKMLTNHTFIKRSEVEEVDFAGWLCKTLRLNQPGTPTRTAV
For the next assay, the target named is TESK1 (Homo sapiens, UniProt Q15569). The conditions noted are these: read-out: Remaining protein kinase activity.
Sequence of TESK1 (Q15569 whole entry): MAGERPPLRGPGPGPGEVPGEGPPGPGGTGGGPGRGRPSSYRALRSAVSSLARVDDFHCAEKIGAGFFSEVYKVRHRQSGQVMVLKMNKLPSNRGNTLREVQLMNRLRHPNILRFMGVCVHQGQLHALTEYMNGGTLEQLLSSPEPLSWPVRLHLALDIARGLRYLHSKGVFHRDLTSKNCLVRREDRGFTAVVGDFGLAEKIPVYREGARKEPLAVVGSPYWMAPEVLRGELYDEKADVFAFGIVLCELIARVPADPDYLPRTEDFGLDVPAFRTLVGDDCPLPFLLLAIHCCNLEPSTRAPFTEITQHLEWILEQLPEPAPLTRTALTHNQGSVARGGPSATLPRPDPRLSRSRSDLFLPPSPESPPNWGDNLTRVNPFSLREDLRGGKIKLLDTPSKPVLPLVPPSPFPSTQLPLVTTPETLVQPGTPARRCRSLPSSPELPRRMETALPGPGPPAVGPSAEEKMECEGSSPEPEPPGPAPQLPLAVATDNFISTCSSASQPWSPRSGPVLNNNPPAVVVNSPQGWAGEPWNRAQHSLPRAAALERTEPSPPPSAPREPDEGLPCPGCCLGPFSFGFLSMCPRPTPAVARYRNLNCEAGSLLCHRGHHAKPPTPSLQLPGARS
In another assay the target is JNK3 (Homo sapiens, UniProt P53779).
Sequence of JNK3 (P53779 whole entry, species assumed): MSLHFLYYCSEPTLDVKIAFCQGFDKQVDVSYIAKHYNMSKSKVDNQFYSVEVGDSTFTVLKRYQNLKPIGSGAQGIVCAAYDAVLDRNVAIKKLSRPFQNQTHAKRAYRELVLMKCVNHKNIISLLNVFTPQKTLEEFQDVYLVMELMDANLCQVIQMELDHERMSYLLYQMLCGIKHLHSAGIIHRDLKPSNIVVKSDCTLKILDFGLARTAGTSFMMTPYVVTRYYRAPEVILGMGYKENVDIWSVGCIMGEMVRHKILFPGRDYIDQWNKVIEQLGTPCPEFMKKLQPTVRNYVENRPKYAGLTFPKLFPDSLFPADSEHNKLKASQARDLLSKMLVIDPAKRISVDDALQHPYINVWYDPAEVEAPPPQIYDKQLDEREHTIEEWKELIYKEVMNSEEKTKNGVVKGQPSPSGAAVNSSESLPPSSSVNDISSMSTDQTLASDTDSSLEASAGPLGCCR
A further assay deals with Src (Homo sapiens, UniProt P12931). The conditions noted are these: read-out: Remaining protein kinase activity.

Read-outs that look alike come from different tables or passages of the source.

Sequence of MAPKAP-K3 (Q16644 whole entry): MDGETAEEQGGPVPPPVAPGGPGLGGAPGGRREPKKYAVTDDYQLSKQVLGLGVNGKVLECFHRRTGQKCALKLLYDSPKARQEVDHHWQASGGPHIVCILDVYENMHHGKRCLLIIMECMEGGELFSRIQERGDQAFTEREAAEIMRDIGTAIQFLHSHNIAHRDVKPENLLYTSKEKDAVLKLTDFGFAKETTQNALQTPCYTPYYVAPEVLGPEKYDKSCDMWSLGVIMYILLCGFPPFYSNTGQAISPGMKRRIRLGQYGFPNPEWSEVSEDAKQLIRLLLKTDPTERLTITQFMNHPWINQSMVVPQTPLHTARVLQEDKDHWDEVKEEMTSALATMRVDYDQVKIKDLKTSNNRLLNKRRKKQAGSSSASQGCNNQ
Sequence of YES1 (P07947 whole entry): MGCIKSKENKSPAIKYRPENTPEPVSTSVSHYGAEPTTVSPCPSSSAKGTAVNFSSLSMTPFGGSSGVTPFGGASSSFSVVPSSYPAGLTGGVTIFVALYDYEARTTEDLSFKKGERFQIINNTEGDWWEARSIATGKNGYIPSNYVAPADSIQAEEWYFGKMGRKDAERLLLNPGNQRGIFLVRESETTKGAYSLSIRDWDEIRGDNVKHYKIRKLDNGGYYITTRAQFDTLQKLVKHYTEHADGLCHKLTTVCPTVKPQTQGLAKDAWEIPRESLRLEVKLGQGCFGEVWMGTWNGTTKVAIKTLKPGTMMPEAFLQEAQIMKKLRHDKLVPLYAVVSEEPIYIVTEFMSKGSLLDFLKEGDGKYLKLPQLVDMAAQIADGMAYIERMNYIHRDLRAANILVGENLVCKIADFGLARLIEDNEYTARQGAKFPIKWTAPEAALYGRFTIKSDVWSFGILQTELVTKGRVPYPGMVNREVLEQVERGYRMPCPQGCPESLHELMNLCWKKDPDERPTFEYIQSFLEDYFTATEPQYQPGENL

As for `COc1ccc2sc(-c3cncc(N)c3)nc2c1` [compound 1, 5-(5-Methoxybenzo[d]thiazol-2-yl)pyridin-3-amine], the remaining activity at 1 µM on p38d MAPK (p38d MAPK, 1 μM) worked out at 116%; on TGFBR1 (TGFBR1, 1 μM), 105%; at YES1 (YES1, 1 μM) it was 122%; at HER4 (HER4, 1 μM), 104%; at TAO1 (TAO1, 1 μM), 97%; at MAPKAP-K3 (MAPKAP-K3, 1 μM), 115%. Besides, the remaining activity at 1 µM was 81% at MKK2 (MKK2, 1 μM); 110% at TESK1 (TESK1, 1 μM); 123% at Src (Src, 1 μM). Besides, the remaining activity at 100 µM came to 95% on p38d MAPK (p38d MAPK, 100 μM); 118% at TGFBR1 (TGFBR1, 100 μM); 58% on YES1 (YES1, 100 μM); 16% at HER4 (HER4, 100 μM); 57% at TAO1 (TAO1, 100 μM); 74% on MAPKAP-K3 (MAPKAP-K3, 100 μM). In addition, the remaining activity at 100 µM came to 62% at MKK2 (MKK2, 100 μM); 28% on TESK1 (TESK1, 100 μM); 42% at Src (Src, 100 μM). The “Remaining protein kinase activity” value at WNK1 (1 μM) came out at 116%; on WNK1 (100 μM) it was 113%; on JNK3 (1 μM) it was 125%; at JNK3 (100 μM) it was 61%.

`COc1ccc2sc(-c3cncc(NC(C)=O)c3)nc2c1` [PST-001, N-(5-(5-Methoxybenzo[d]thiazol-2-yl)pyridin-3-yl)acetamide]: the remaining activity at 1 µM amounted to 115% at p38d MAPK; 112% at TGFBR1; 130% on YES1; 103% at HER4; 102% at TAO1; 115% on MAPKAP-K3. Further, the remaining activity at 1 µM on MKK2 was 75%; on TESK1 it was 105%; at Src, 100%. The remaining activity at 100 µM at p38d MAPK was found to be 112%; at TGFBR1 it was 129%; at YES1, 128%; on HER4 it was 94%; on TAO1, 111%; at MAPKAP-K3, 113%. Moreover, the remaining activity at 100 µM on MKK2 is 100%; on TESK1, 85%; at Src, 106%. Besides, the “Remaining protein kinase activity” value is reported as 127% at WNK1 (1 μM), 118% on WNK1 (100 μM), 127% at JNK3 (1 μM) and 122% on JNK3 (100 μM).

Broadly, the remaining activity is the signal under treatment as a percentage of the control signal.
